Structures are written as SMILES.

This assay deals with T1, human osteosarcoma cell line, B10 (Homo sapiens, UniProt Q03431).
T1 construct: analyzed in a human osteosarcoma cell line, B10; endogenous in cells; host or cells: human osteosarcoma cell line B10
T1 sequence (Q03431 27-593): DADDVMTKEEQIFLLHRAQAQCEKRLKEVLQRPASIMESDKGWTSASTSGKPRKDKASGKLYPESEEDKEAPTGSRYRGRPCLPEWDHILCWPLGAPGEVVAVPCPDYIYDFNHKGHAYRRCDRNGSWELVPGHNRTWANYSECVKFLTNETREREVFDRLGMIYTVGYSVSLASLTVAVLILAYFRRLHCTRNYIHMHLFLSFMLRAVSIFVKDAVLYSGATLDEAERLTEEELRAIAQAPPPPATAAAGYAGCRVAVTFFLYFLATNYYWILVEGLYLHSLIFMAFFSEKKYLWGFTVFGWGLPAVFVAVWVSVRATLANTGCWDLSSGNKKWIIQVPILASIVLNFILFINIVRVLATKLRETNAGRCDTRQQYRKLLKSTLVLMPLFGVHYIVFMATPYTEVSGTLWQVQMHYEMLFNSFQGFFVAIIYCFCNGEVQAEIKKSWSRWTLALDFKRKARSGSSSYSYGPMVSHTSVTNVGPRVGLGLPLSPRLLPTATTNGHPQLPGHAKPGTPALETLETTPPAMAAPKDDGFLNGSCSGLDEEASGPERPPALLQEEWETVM
The assay is described as follows: Human bone cell (B10) adenylate cyclase assay. The assay is classed as cell-based. Here is the method: HCF analogues were analyzed in a human osteosarcoma cell line, B10, for the ability to inhibit cAMP stimulation by 1 nM [Nle^8,18,Tyr^34 ]bPTH(1-34)NH2 by the method described by R. J. Majeska et al., Endocrinol., 107: 1494 (1980).

The compound `CC[C@H](C)[C@H](NC(=O)[C@H](CC(C)C)NC(=O)[C@H](Cc1c[nH]cn1)NC(=O)[C@H](Cc1c[nH]cn1)NC(=O)[C@H](CC(C)C)NC(=O)[C@H](Cc1ccccc1)NC(=O)[C@H](Cc1ccccc1)NC(=O)[C@H](CCCNC(=N)N)NC(=O)[C@H](CCCNC(=N)N)NC(=O)[C@H](CCCNC(=N)N)NC(=O)[C@H](CC(C)C)NC(=O)[C@@H]1CC(=O)NCCCC[C@H](NC(=O)[C@@H](Cc2c[nH]c3ccccc23)NC(=O)[C@H](CC(C)C)NC(=O)[C@H](CC(=O)O)NC(=O)[C@H](Cc2c[nH]cn2)NC(=O)[C@H](CC(C)C)NC(=O)[C@@H](N)CC(C)C)C(=O)N[C@@H](CO)C(=O)N[C@@H]([C@@H](C)CC)C(=O)N[C@@H](CCC(N)=O)C(=O)N1)C(=O)N[C@@H](C)C(=O)N[C@@H](CCC(=O)O)C(=O)N[C@H](C(=O)N[C@@H](Cc1c[nH]cn1)C(=O)N[C@H](C(=O)N[C@@H](C)C(N)=O)[C@@H](C)O)[C@@H](C)CC` returned a Ki of 3.2 ± 1 nM.
As for `CC[C@H](C)[C@H](NC(=O)[C@H](CC(C)C)NC(=O)[C@H](Cc1c[nH]cn1)NC(=O)[C@H](Cc1c[nH]cn1)NC(=O)[C@H](CC(C)C)NC(=O)[C@H](Cc1ccccc1)NC(=O)[C@H](Cc1ccccc1)NC(=O)[C@H](CCCNC(=N)N)NC(=O)[C@H](CCCNC(=N)N)NC(=O)[C@H](CCCNC(=N)N)NC(=O)[C@H](CC(C)C)NC(=O)[C@@H]1CC(=O)NCCCC[C@H](NC(=O)[C@@H](Cc2c[nH]c3ccccc23)NC(=O)[C@H](CC(C)C)NC(=O)[C@H](CC(=O)O)NC(C)=O)C(=O)N[C@@H](CO)C(=O)N[C@@H]([C@@H](C)CC)C(=O)N[C@@H](CCC(N)=O)C(=O)N1)C(=O)N[C@@H](C)C(=O)N[C@@H](CCC(=O)O)C(=O)N[C@H](C(=O)N[C@@H](Cc1c[nH]cn1)C(=O)N[C@H](C(=O)N[C@@H](C)C(N)=O)[C@@H](C)O)[C@@H](C)CC`, the figure is 3.6 ± 0.8 nM.

Values taken from patent publication US5149779A, “Humoral hypercalcemic factor antagonists” (Merck & Co., Inc., priority 1990, dated 1992).
